We go through eleven molecules from US5734012A, “Cyclic motilin-like polypeptides with gastrointestinal motor stimulating activity” (Ohmeda Pharmaceutical Products Division Inc., priority 1996, dated 1998).

Data set [1] is described as follows: In vitro stability testing in 2% hog kidney homogenate. It counts as in vitro ADME. Particulars: for half-life at 0.5 mg/ml: pig, kidney or brush border membranes. The protocol:
Like most small linear polypeptides, motilin is believed to be metabolized by the brush border cells of the kidney. Therefore, kidney homogenate was chosen as the model system for assessing the relative in vivo biostability of the peptides of this invention. All peptides to be studied were incubated in hog kidney (Pel Freeze, Inc., Rogers, Ark.) (2% w/v; final volume=4 mls; buffer=HEPES pH 7.0) at 25° C. […] In order to determine suitable incubation times and sampling intervals, two experiments were conducted with each polypeptide. The first run served as a rough estimate of peptide stability. All sampling was performed in duplicate. Sample volume was 180 μl. Sample clean-up was performed by addition of 20 μl of 100% TCA (final volume=200 μl; final TCA concentration=10%). The sample was vortexed from 5 to 10 seconds to ensure equilibration, then centrifuged to spin out the precipitated proteins. Analysis was carried out on a Waters HPLC system with autoinjector, a 5 μVydac C-18 analytical column, and a Waters 481 UV detector set at 214 nm. Injection volume was 80 μl. Initial solvent conditions were 20% acetonitrile / 80% (0.1%) TFA in Milli-Q water with a 35 minute gradient running to 63% acetonitrile / 37% (0.1%) TFA at 1 ml/min. Polypeptide substrate and metabolite peaks were ratioed to the internal standard and the duplicate sample ratios were averaged. The average ratio for the peptide substrate was expressed as a percentage and plotted versus time. First-order kinetics was assumed for data treatment. The rate of disappearance of the substrate was calculated using the Enzfitter program (Biosoft). Relative half-lives were determined from the relationship: […]

Data set [2] concerns the target T1, motilin receptor (Oryctolagus cuniculus, UniProt G1T803).
T1 construct: from tissue; host or cells: rabbit antral smooth muscle membranes
Briefly: Motilin receptor binding affinity (displacement of [125I-Tyr7,Nle13]motilin(porcine)). On the set-up: species or system rabbit. The method, then:
The motilin receptor binding affinity of the peptides of this invention was determined by using the general procedure of Bormans, Peeters and Vantrappen, Regul. […] Fitting was performed using the iterative least-squares procedure of the SAS-software package (SAS Institute, Inc., Cary, N.C., USA).
(Displacement assays read how much labelled ligand stays bound in the presence of the test substance.)

Data set [3] has as its target rabbit duodenal smooth muscle strip (Oryctolagus cuniculus, UniProt G1T803). Briefly: Rabbit duodenal smooth muscle strip tissue bath assay (contractility). It counts as cell-based. Particulars: negative logarithm of dose giving 50% of maximal response to motilin; isotonic contraction of rabbit duodenum segments. The method, then: The experimental protocol consisted of an equilibration period of 1 hour; a challenge with 10^-4 M acetylcholine followed by a wash-out period; a cumulative dose-response curve of a compound with, at the end, the addition of 10^-7 M motilin; and finally 10^-4 M acetylcholine. If the final response to 10^-4 M acetylcholine differed by more than 5% from the initial response, the results were discarded.

Where [4] appears, read: negative logarithm of concentration displacing 50% of [125I-Tyr7,Nle13]motilin(porcine) bound to rabbit antral smooth muscle membranes, read-out: pIC50 (converted).

Read-outs that look alike come from different tables or passages of the source. Positions of bridges follow the written chain, without caps; N, C: chain ends. Non-standard residues stand in square brackets, D forms with d. Residues, ends and D or L forms follow the SMILES beside them. *: point of attachment. X1 = C[N+](C)(C)[C@@H](Cc1ccccc1)C(=O)*; NMeF = CN[C@@H](Cc1ccccc1)C(=O)O; dNMeF = CN[C@H](Cc1ccccc1)C(=O)O Bounds are passed on as bounds.

Sequence of rabbit duodenal smooth muscle strip (G1T803 1-400): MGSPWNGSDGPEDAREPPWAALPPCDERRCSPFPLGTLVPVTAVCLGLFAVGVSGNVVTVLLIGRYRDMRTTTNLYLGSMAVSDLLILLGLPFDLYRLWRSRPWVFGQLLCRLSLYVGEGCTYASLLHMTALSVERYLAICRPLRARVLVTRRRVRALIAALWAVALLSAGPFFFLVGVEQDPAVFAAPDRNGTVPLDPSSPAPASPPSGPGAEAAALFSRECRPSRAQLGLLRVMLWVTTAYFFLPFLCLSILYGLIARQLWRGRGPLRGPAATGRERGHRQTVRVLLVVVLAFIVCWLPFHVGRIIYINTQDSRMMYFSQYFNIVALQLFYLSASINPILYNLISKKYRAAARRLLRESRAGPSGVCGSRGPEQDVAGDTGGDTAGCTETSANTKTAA
T1 sequence (G1T803 1-400): as above

Regarding `CC[C@H](C)[C@H](NC(=O)[C@@H]1CCCN1C(=O)[C@@H](NC(=O)[C@@H](N)Cc1ccccc1)C(C)C)C(=O)N[C@@H](Cc1ccccc1)C(=O)N[C@H](C(=O)N[C@@H](Cc1ccc(O)cc1)C(=O)NCC(=O)N[C@@H](CCC(=O)O)C(=O)N[C@@H](CC(C)C)C(=O)N[C@@H](CCC(N)=O)C(=O)N[C@@H](CCCN=C(N)N)C(=O)N[C@@H](CC(C)C)C(=O)N[C@@H](CCC(N)=O)C(=O)N[C@@H](CCC(=O)O)C(=O)N[C@@H](CCCCN)C(=O)N[C@@H](CCC(=O)O)C(=O)N[C@@H](CCCN=C(N)N)C(=O)N[C@@H](CC(N)=O)C(=O)N[C@@H](CCCCN)C(=O)NCC(=O)N[C@@H](CCC(N)=O)C(=O)O)[C@@H](C)O` [SEQ ID NO:3, [Leu^13]pMOT(1-22), reference compound] (H-FVPIFTYGELQRLQEKERNKGQ-OH), the half-life at 0.5 mg/ml in data set [1] (2% w/v hog kidney homogenate, HEPES pH 7.0, 25° C., 0.5 mg/ml substrate, first-order kinetics, read-out: T1/2) was 30.2 min.
In general, pEC50 refers to the negative decadic logarithm of the EC50, by convention in mol/L. For the molecule `CC[C@H](C)[C@H](NC(=O)[C@@H]1CCCN1C(=O)[C@@H](NC(=O)[C@@H](N)Cc1ccccc1)C(C)C)C(=O)N[C@@H](Cc1ccccc1)C(=O)N[C@H](C(=O)N[C@@H](Cc1ccc(O)cc1)C(=O)NCC(=O)N[C@@H](CCC(=O)O)C(=O)N[C@H]1CC(=O)NCCCC[C@@H](C(N)=O)NC(=O)[C@H](CC(C)C)NC(=O)[C@H](CCCNC(=N)N)NC(=O)[C@H](CCC(N)=O)NC1=O)[C@@H](C)O` [SEQ ID NO:6, cyclo^10,14 [Asp^10, Leu^13, Lys^14]pMOT(1-14)] (H-FVPIFTYGEDQRLK-NH2; lactam 10-14), in data set [2] (setting [4]), the IC50 is 1.51 nM. This molecule registered a negative-log EC50 (pEC50) in data set [3] of 7.77.
For `CC[C@H](C)[C@H](NC(=O)[C@@H]1CCCN1C(=O)[C@@H](NC(=O)[C@H](Cc1ccccc1)NC)C(C)C)C(=O)N[C@@H](Cc1ccccc1)C(=O)N[C@H](C(=O)N[C@@H](Cc1ccc(O)cc1)C(=O)NCC(=O)N[C@@H](CCC(=O)O)C(=O)N[C@H]1CC(=O)NCCCC[C@@H](C(=O)N[C@@H](CCCCN)C(N)=O)NC(=O)[C@H](CC(C)C)NC(=O)[C@H](CCCNC(=N)N)NC(=O)[C@H](C)NC1=O)[C@@H](C)O` [SEQ ID NO:8, cyclo^10,14 [N-MePhe^1,Asp^10,Ala^11,Leu^13,Lys^14,Lys^15]pMOT(1-15) amide] (H-[NMeF]VPIFTYGEDARLKK-NH2; lactam 10-14), in that order: 1.1 nM and 7.69.
For the molecule `CC[C@H](C)[C@H](NC(=O)[C@@H]1CCCN1C(=O)[C@@H](NC(=O)[C@H](Cc1ccccc1)NC)C(C)C)C(=O)N[C@@H](Cc1ccccc1)C(=O)N[C@H](C(=O)N[C@@H](Cc1ccc(O)cc1)C(=O)NCC(=O)N[C@@H](CCC(=O)O)C(=O)N[C@H]1CC(=O)NCCCC[C@@H](C(=O)N[C@H](CCCCN)C(N)=O)NC(=O)[C@H](CC(C)C)NC(=O)[C@H](CCCNC(=N)N)NC(=O)[C@H](C)NC1=O)[C@@H](C)O` [SEQ ID NO:9, cyclo^10,14 [N-MePhe^1,Asp^10,Ala^11,Leu^13,Lys^14,D-Lys^15]pMOT(1-15) amide] (H-[NMeF]VPIFTYGEDARLK[dK]-NH2; lactam 10-14), in data set [2], the IC50 was 0.661 nM. In data set [3], this molecule returned a pEC50 of 7.89.
On to `CC[C@H](C)[C@H](NC(=O)[C@@H]1CCCN1C(=O)[C@@H](NC(=O)[C@H](Cc1ccccc1)NC)C(C)C)C(=O)N[C@@H](Cc1ccccc1)C(=O)N[C@H](C(=O)N[C@@H](Cc1ccc(O)cc1)C(=O)NCC(=O)N[C@@H](CCC(=O)O)C(=O)N[C@H]1CCC(=O)NCCCC[C@@H](C(=O)N[C@@H](CCCCN)C(N)=O)NC(=O)[C@H](CC(C)C)NC(=O)[C@H](CCCNC(=N)N)NC(=O)[C@H](C)NC1=O)[C@@H](C)O` [SEQ ID NO:10, cyclo^10,14 [N-MePhe^1,Glu^10,Ala^11,Leu^13,Lys^14,Lys^15]pMOT(1-15) amide] (H-[NMeF]VPIFTYGEEARLKK-NH2; lactam 10-14), for which the IC50 in data set [2] (setting [4]) was 0.631 nM. For the same molecule, in data set [1] (pH 7), the half-life at 0.5 mg/ml is 21 min. In data set [3], this molecule gave a pEC50 of 7.96.
For `CC[C@H](C)[C@H](NC(=O)[C@@H]1CCCN1C(=O)[C@@H](NC(=O)[C@H](Cc1ccccc1)[N+](C)(C)C)C(C)C)C(=O)N[C@@H](Cc1ccccc1)C(=O)N[C@H](C(=O)N[C@@H](Cc1ccc(O)cc1)C(=O)NCC(=O)N[C@@H](CCC(=O)O)C(=O)N[C@H]1CC(=O)NCCCC[C@@H](C(=O)N[C@H](CCCCN)C(N)=O)NC(=O)[C@H](CC(C)C)NC(=O)[C@H](CCCNC(=N)N)NC(=O)[C@H](C)NC1=O)[C@@H](C)O` [SEQ ID NO:11, cyclo^10,14 [Me3 N^+ Phe^1,Asp^10,Ala^11,Leu^13,Lys^14,D-Lys^15]pMOT(1-15) amide] (X1-VPIFTYGEDARLK[dK]-NH2; lactam 9-13), the IC50 in data set [2] (setting [4]) was 1.23 nM. In data set [1] (pH 7), this molecule had a half-life at 0.5 mg/ml of 437 min. In data set [3], this molecule returned a pEC50 of 7.89.
Turning to `CC[C@H](C)[C@H](NC(=O)[C@@H]1CCCN1C(=O)[C@@H](NC(=O)[C@@H](Cc1ccccc1)NC)C(C)C)C(=O)N[C@@H](Cc1ccccc1)C(=O)N[C@H](C(=O)N[C@@H](Cc1ccc(O)cc1)C(=O)NCC(=O)N[C@@H](CCC(=O)O)C(=O)N[C@H]1CCC(=O)NCCCC[C@@H](C(N)=O)NC(=O)[C@H](CC(C)C)NC(=O)[C@H](CCCNC(=N)N)NC(=O)[C@H](CCC(N)=O)NC1=O)[C@@H](C)O` [SEQ ID NO:13, cyclo^10,14 [N-Me-D-Phe^1,Glu^10,Leu^13,Lys^14 pMOT(1-14) amide] (H-[dNMeF]VPIFTYGEEQRLK-NH2; lactam 10-14), the IC50 in data set [2] (setting [4]) is 5.5 nM. In addition, in data set [3], the pEC50 was 6.87.
`CC[C@H](C)[C@H](NC(=O)[C@@H]1CCCN1C(=O)[C@@H](NC(=O)[C@H](Cc1ccccc1)[N+](C)(C)C)C(C)C)C(=O)N[C@@H](Cc1ccccc1)C(=O)N[C@H](C(=O)N[C@@H](Cc1ccc(O)cc1)C(=O)NCC(=O)N[C@@H](CCC(=O)O)C(=O)N[C@H]1CCC(=O)NCCCC[C@@H](C(N)=O)NC(=O)[C@H](CC(C)C)NC(=O)[C@H](CCCNC(=N)N)NC(=O)[C@H](CCC(N)=O)NC1=O)[C@@H](C)O` [SEQ ID NO:14, cyclo^10,14 [Me3 N^+ Phe^1,Glu^10,Leu^13,Lys^14]pMOT(1-14) amide] (X1-VPIFTYGEEQRLK-NH2; lactam 9-13): the “T1/2” value in data set [1] (pH 7) is above 200 min. Moreover, the negative logarithm of the EC50 (pEC50) in data set [3] is 7.38.
For `CC[C@H](C)[C@H](NC(=O)[C@@H]1CCCN1C(=O)[C@@H](NC(=O)[C@H](Cc1ccccc1)NC)C(C)C)C(=O)N[C@@H](Cc1ccccc1)C(=O)N[C@H](C(=O)N[C@@H](Cc1ccc(O)cc1)C(=O)NCC(=O)N[C@@H](CCC(=O)O)C(=O)N[C@H]1CC(=O)NCCCC[C@@H](C(N)=O)NC(=O)[C@H](CC(C)C)NC(=O)[C@@H](CCCNC(=N)N)NC(=O)[C@H](C)NC1=O)[C@@H](C)O` [SEQ ID NO:23, cyclo^10,14 [N-MePhe^1,Asp^10,Ala^11,D-Arg^12,Leu^13,Lys^14]pMOT(1-14) amide] (H-[NMeF]VPIFTYGEDA[dR]LK-NH2; lactam 10-14), the IC50 in data set [2] (setting [4]) was 11.5 nM. Besides, the pEC50 in data set [3] came to 7.89.
For the molecule `CC[C@H](C)[C@H](NC(=O)[C@@H]1CCCN1C(=O)[C@@H](NC(=O)[C@H](Cc1ccccc1)[N+](C)(C)C)C(C)C)C(=O)N[C@@H](Cc1ccccc1)C(=O)N[C@H](C(=O)N[C@@H](Cc1ccc(O)cc1)C(=O)NCC(=O)N[C@@H](CCC(=O)O)C(=O)N[C@H]1CC(=O)NCCCC[C@@H](C(N)=O)NC(=O)[C@H](CC(C)C)NC(=O)[C@@H](CCCNC(=N)N)NC(=O)[C@H](C)NC1=O)[C@@H](C)O` [SEQ ID NO:24, cyclo^10,14 [Me3 N^+ Phe^1,Asp^10,Ala^11,D-Arg^12,Leu^13,Lys^14]pMOT(1-14) amide] (X1-VPIFTYGEDA[dR]LK-NH2; lactam 9-13), in data set [2] (setting [4]), the IC50 is 12.6 nM. In data set [3], this molecule gave a pEC50 of 7.02.
As for `CC[C@H](C)[C@H](NC(=O)[C@@H]1CCCN1C(=O)[C@@H](NC(=O)[C@@H](N)Cc1ccccc1)C(C)C)C(=O)N[C@@H](Cc1ccccc1)C(=O)N[C@H](C(=O)N[C@@H](Cc1ccc(O)cc1)C(=O)NCC(=O)N[C@@H](CCC(=O)O)C(=O)N[C@@H](CC(C)C)C(=O)N[C@@H](CCC(N)=O)C(=O)N[C@@H](CCCNC(=N)N)C(=O)N[C@@H](CC(C)C)C(=O)N[C@@H](CCC(N)=O)C(=O)O)[C@@H](C)O` [SEQ ID NO:27, [Leu^13]pMOT(1-14), reference compound] (H-FVPIFTYGELQRLQ-OH; N-terminus and C-terminus assumed), the half-life at 0.5 mg/ml in data set [1] (pH 7) worked out at 7.5 min.
